“And” between values parts separate entries of the source, which are not always exact repeats. Equal entries are not always repeated. Where two headings read alike, the source gives them in different places. Ends that are not written are not given here.
Tests used:
P. aeruginosa [1] = tested on: P. aeruginosa
Method: (§1) FICs are performed by checkerboard titrations of peptides in one dimension of a microtiter plate, and of antibiotics in the other dimension, for example. The FIC is calculated by looking at the impact of one antibiotic on the MIC of the other and vice versa. […] Preferably, an FIC of less than 0.5 is obtained for synergism. As used herein, FIC can be determined as follows: [formula]
(§2) Briefly, cells were grown overnight at 37° C. in LB-S (Luria broth without any salt supplement) and diluted one in 10,000 in the same medium to give concentrations of about 10^4 to 10^5 CFU/ml. The broth dilutions were set up in a 96 well microtiter plate by putting 200 μl of LB-S containing the initial concentration of antibiotic or compound in column 1 and 100 μl of the same medium in columns 2-12. The compounds were diluted by taking 100 μl of broth from column 1 and mixing it with column 2, resulting in a one in two dilution. This was continued to column 10. Finally, 10 μl of bacteria were pipetted into columns 1-11, and the plates incubated overnight at 37° C. The next day the plates were scored for growth in the wells, and the MIC determined.

S. epidermis = conditions: S. epidermis
Method: as §1, §2

A. calcoaceticus [2] = test: MIC, broth dilution in LB-S; type: cell-based; conditions: additional MICs
Method: (§3) The biological activity of the peptides can be determined by standard methods known to those of skill in the art, such as “minimal inhibitory concentration (MIC)” assay described in the present examples, whereby the lowest concentration at which no change in OD is observed for a given period of time is recorded as MIC. Alternatively, “fractional inhibitory concentration (FIC)” is also useful for determination of synergy between the peptides of the invention, or the peptides in combination with known antibiotics. FICs are performed by checkerboard titrations of peptides in one dimension of a microtiter plate, and of antibiotics in the other dimension, for example. The FIC is calculated by looking at the impact of one antibiotic on the MIC of the other and vice versa. […] Preferably, an FIC of less than 0.5 is obtained for synergism. As used herein, FIC can be determined as follows: [formula]
as §2

E. cloacae [3] = test: MIC, broth dilution in LB-S; type: cell-based; conditions: additional MICs
Method: as §3, §2

E. coli = test: MIC, broth dilution in LB-S; type: cell-based
Method: as §3, §2

E. faecalis = test: MIC, broth dilution in LB-S; type: cell-based; conditions: Table 1b, separate set of experiments
Method: as §3, §2

K. pneumoniae = test: MIC, broth dilution in LB-S; type: cell-based; conditions: additional MICs
Method: as §3, §2

S. aureus = test: MIC, broth dilution in LB-S; type: cell-based
Method: as §3, §2

X maltophilia = test: MIC, broth dilution in LB-S; type: cell-based; conditions: additional MICs
Method: as §3, §2

Candida albicans = test: MIC, broth dilution in LB-S; type: cell-based
Method: as §1, §2

E. coli ML 35 = test: Inner membrane permeabilization (ONPG hydrolysis by β-galactosidase); type: cell-based; conditions: E. coli ML 35, ONPG
Method: Inner membrane permeability was determined by measurement in E. coli ML 35 of β-galactosidase activity using ONPG as a substrate. Normally ONPG cannot pass across the cytoplasmic membrane to permit hydrolysis by the cytoplasmic enzyme β-galactosidase. However, cationic peptides, by permeabilizing the inner membrane, unmasks this enzyme leading to color development as ONP is released. […] Addition of citrate increased the lag time before the peptides were able to permeabilize the membranes. When the experiments were executed in cation adjusted media (CAMHB), the lag time was increased up to 30 minutes.

LPS = test: Dansyl polymyxin displacement assay; type: binding; conditions: Dansyl polymyxin displacement from LPS
Text: In addition, the peptides of SEQ ID NO: 5-8 also bound effectively to LPS with high affinity based on Dansyl polymyxin displacement assays (Table 5).

Red Blood Cells = test: Red blood cell lysis; type: cell-based; conditions: concentration lysing Red Blood Cells
[4] = α helical content by CD spectra; type: physicochemical
Method: α Helical Content of Cationic Peptides by CD Spectra
The α helical content of the peptides were measured in buffer, liposomes and 20% Hexafluoroisopropanol (HFPIP). The liposomes constituted of POPC alone or POPC and POPC and 30% POPG (Table 7).

A. calcoaceticus [5] = conditions: agent alone
Method: as §1
(§4) Synergism is identified as an FIC of about ≦0.5.

E. cloacae [6] = conditions: agent alone
Method: as §1, §4

P. aeruginosa [7] = test: microbe, parasite or virus in culture; conditions: agent alone
Method: as §1, §4

X. maltophila = test: organism not typed; conditions: agent alone
Method: as §1, §4

Sequence KWKSFIKKLTSAAKKVVTTAKPLISS [MBI 26] has an MIC (P. aeruginosa [1]; P. aeruginasa (H 103), additional MICs) of 4 µg/mL, an MIC (P. aeruginosa [1]; P. aeruginosa (H187), Table 1a) of 11 µg/mL and an MIC (P. aeruginosa [1]; P. aeruginosa (H187), Table 1b, separate set of experiments) of 32 µg/mL. The “MIC P. aeruginosa (H187)” value (P. aeruginosa [1]; P. aeruginosa (H187), Table 6) was 4.5 µg/mL, the MIC (S. epidermis; Table 1a) was “≧64” and the MIC (S. epidermis; Table 1b, separate set of experiments) was 32 µg/mL. It also gave an MIC (A. calcoaceticus [2]) of 2 µg/mL, an MIC (E. cloacae [3]) of 2 µg/mL and an MIC (E. coli; E. coli 0111:B4, additional MICs) of 2 µg/mL. The MIC (E. coli; E. coli (UB1005), Table 1a) was 3 µg/mL, the MIC (E. coli; E. coli (UB1005), Table 1b, separate set of experiments) was 4 µg/mL and the “MIC E. coli (UB 1005)” value (E. coli; E. coli (UB 1005), Table 6) was 1.1 µg/mL. For the same sequence, the MIC (E. coli; E. coli. Bort, additional MICs) was 2 µg/mL, the MIC (E. faecalis) was “≧64” and the MIC (K. pneumoniae) was 8 µg/mL. The MIC (S. aureus; S. aureus (K 147), Table 1a) was “≧64”, the MIC (S. aureus; S. aureus (K147), Table 1b, separate set of experiments) was “≧64” and the MIC (S. aureus; S. aureus (SAP0017), Table 1a) was “≧64”. The MIC (S. aureus; S. aureus (SAP0017), Table 1b, separate set of experiments) was “≧64”, the MIC (X maltophilia) was 2 µg/mL and the MIC (Candida albicans; Candida albicans (CAN105), Table 1b, separate set of experiments) was “≧64”. The MIC (Candida albicans; Candida alibicans (CAN105), Table 1a) was “≧64”, the “Lag Time” value (E. coli ML 35) was 210 s and the “Rate of Hydrolysis” value (E. coli ML 35) was 0.081 ΔAU min^−1. The 1max (LPS) was 38%, the “RBC Lysis” value (Red Blood Cells) was >55 µg/mL and the “% α helicity” value ([4]; 20% HFIP) was 70%. For the same sequence, the “% α helicity” value ([4]; Buffer) was 0%, the “% α helicity” value ([4]; POPC Liposomes) was 0% and the “% α helicity” value ([4]; POPC/POPG Liposomes (30% POPG)) was 8%. The MIC (A. calcoaceticus [5]; A. calcoaceticus isolate 1, strain ATCC 23055) was 128 µg/mL and 64 µg/mL, the MIC (A. calcoaceticus [5]; A. calcoaceticus isolate 2, strain 23) was 32 µg/mL and 64 µg/mL and the MIC (A. calcoaceticus [5]; A. calcoaceticus isolate 3, strain 27) was 64 µg/mL and 32 µg/mL. The MIC (A. calcoaceticus [5]; A. calcoaceticus isolate 4, strain 28) was 16 µg/mL and 32 µg/mL, the MIC (A. calcoaceticus [5]; A. calcoaceticus isolate 5, strain 8220) was 64 µg/mL and 32 µg/mL and the MIC (A. calcoaceticus [5]; A. calcoaceticus isolate 6, strain 8221) was 64 µg/mL. The MIC (A. calcoaceticus [5]; A. calcoaceticus isolate 7, strain 8222) was 64 µg/mL, the MIC (A. calcoaceticus [5]; A. calcoaceticus isolate 8, strain 8223) was 64 µg/mL and 32 µg/mL and the MIC (A. calcoaceticus [5]; A. calcoaceticus isolate 9, strain 8224) was 64 µg/mL. It also gave an MIC (A. calcoaceticus [5]; A. calcoaceticus isolate 10, strain 8225) of 64 µg/mL, an MIC (A. calcoaceticus [5]; A. calcoaceticus isolate 11, strain 8226) of 64 µg/mL and an MIC (E. cloacae [6]; E. cloacae isolate 14, strain 938-2) of 64 µg/mL. The MIC (E. cloacae [6]; E. cloacae isolate 15, strain B5546) was 64 µg/mL and 32 µg/mL, the MIC (E. cloacae [6]; E. cloacae isolate 16, strain R4148) was 64 µg/mL and 32 µg/mL and the MIC (E. cloacae [6]; E. cloacae isolate 17, strain R4148-2) was 64 µg/mL and 32 µg/mL. The MIC (E. cloacae [6]; E. cloacae isolate 18, strain 3077) was 64 µg/mL, the MIC (E. cloacae [6]; E. cloacae isolate 19, strain 3356) was 128 µg/mL and 64 µg/mL and the MIC (P. aeruginosa [7]; P. aeruginosa isolate 23, strain ATCC 27853) was 64 µg/mL and 128 µg/mL. For the same sequence, the MIC (P. aeruginosa [7]; P. aeruginosa isolate 24, strain 34) was 64 µg/mL and 128 µg/mL, the MIC (P. aeruginosa [7]; P. aeruginosa isolate 25, strain 923-1) was 64 µg/mL and 128 µg/mL and the MIC (P. aeruginosa [7]; P. aeruginosa isolate 26, strain 3101) was 64 µg/mL and 128 µg/mL. For the same sequence, the MIC (X. maltophila; X. maltophila isolate 34, strain ATCC 13637) was 64 µg/mL, the MIC (X. maltophila; X. maltophila isolate 35, strain 6) was 64 µg/mL and 128 µg/mL and the MIC (X. maltophila; X. maltophila isolate 40, strain R1302-1) was 128 µg/mL and 64 µg/mL. For the same sequence, the MIC (X. maltophila; X. maltophila isolate 41, strain R4230) was 64 µg/mL.

— patent publication US6906035B2, “Antimicrobial cationic peptides” (priority 1995, dated 2005)
